From ChEMBL document CHEMBL1201862, “PubChem BioAssay data set” (2004)
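Growth conditions: 96-well plates. Treatment: test compound, 48 hours, 5 concentrations. Analysis: linear interpolation between bracketing concentrations; unreached endpoints set to highest concentration. GI50 is the concentration that inhibits growth by half.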 The source made the active and inactive calls. No stated cut-off is given here; in the data, active = GI50 up to about 1.1 µM and inactive = higher.

What was measured:
Assay in all cases: NCI-60 cell line screen, 48 h
[1] = tested on: DU-145
[2] = tested on: HOP-92
[3] = tested on: OVCAR-5
[4] = tested on: KM12
[5] = tested on: NCI-H522
[6] = tested on: SF-539
[7] = tested on: CAKI-1
[8] = tested on: SK-OV-3
[9] = tested on: Malme-3M
[10] = tested on: NCI/ADR-RES
[11] = tested on: M14
[12] = tested on: 786-0
[13] = tested on: HL-60
[14] = tested on: UO-31
[15] = tested on: MCF7
[16] = tested on: U-251
[17] = tested on: RXF 393
[18] = tested on: SF-295
[19] = tested on: Hs-578T
[20] = tested on: NCI-H23

## CC(C)(C)OC(=O)NCCCNC1(c2cc3ccccc3s2)CCCCC1
[1]
  GI50: 16.9 µM (inactive)
[2]
  GI50: 10 µM (inactive)
[3]
  GI50: 13.7 µM (inactive)
[4]
  GI50: 17 µM (inactive)
[5]
  GI50: 14.2 µM (inactive)
[6]
  GI50: 18.4 µM (inactive)
[7]
  GI50: 13.6 µM (inactive)
[8]
  GI50: 13.2 µM (inactive)
[9]
  GI50: 15.9 µM (inactive)
[10]
  GI50: 15.2 µM (inactive)
[11]
  GI50: 12 µM (inactive)
[12]
  GI50: 14.9 µM (inactive)
[13]
  GI50: 10.5 µM (inactive)
[14]
  GI50: 12.6 µM (inactive)
[15]
  GI50: 15.9 µM (inactive)
[16]
  GI50: 21.3 µM (inactive)
[17]
  GI50: 14.8 µM (inactive)
[18]
  GI50: 14.8 µM (inactive)
[19]
  GI50: 19.4 µM (inactive)
[20]
  GI50: 13 µM (inactive)

## O=C1NC(=O)C(F)(n2cc(F)c(=O)[nH]c2=O)C(O)N1 (stereo not given)
[1]
  GI50: > 10 µM (inactive)
[2]
  GI50: > 10 µM (inactive)
[3]
  GI50: > 10 µM (inactive)
[4]
  GI50: > 10 µM (inactive)
[5]
  GI50: > 10 µM (inactive)
[6]
  GI50: > 10 µM (inactive)
[7]
  GI50: > 10 µM (inactive)
[8]
  GI50: > 10 µM (inactive)
[9]
  GI50: > 10 µM (inactive)
[10]
  GI50: > 10 µM (inactive)
[11]
  GI50: > 10 µM (inactive)
[12]
  GI50: > 10 µM (inactive)
[13]
  GI50: > 10 µM (inactive)
[14]
  GI50: > 10 µM (inactive)
[15]
  GI50: > 10 µM (inactive)
[16]
  GI50: > 10 µM (inactive)
[17]
  GI50: > 10 µM (inactive)
[18]
  GI50: > 10 µM (inactive)
[19]
  GI50: > 10 µM (inactive)
[20]
  GI50: > 10 µM (inactive)

## NNc1ncc2c(n1)-c1ccccc1OC2
[1]
  GI50: 61 µM (inactive)
[2]
  GI50: 24.7 µM (inactive)
[3]
  GI50: > 100 µM (inactive)
[4]
  GI50: 54.1 µM (inactive)
[5]
  GI50: 46.5 µM (inactive)
[6]
  GI50: 46.3 µM (inactive)
[7]
  GI50: > 100 µM (inactive)
[8]
  GI50: 57.1 µM (inactive)
[9]
  GI50: 51.2 µM (inactive)
[10]
  GI50: 28 µM (inactive)
[11]
  GI50: 52.4 µM (inactive)
[12]
  GI50: 64.3 µM (inactive)
[13]
  GI50: 19.7 µM (inactive)
[14]
  GI50: 41.1 µM (inactive)
[15]
  GI50: 50.1 µM (inactive)
[16]
  GI50: 54.2 µM (inactive)
[17]
  GI50: > 100 µM (inactive)
[18]
  GI50: 36.1 µM (inactive)
[19]
  GI50: > 100 µM (inactive)
[20]
  GI50: > 100 µM (inactive)

## O=C1CCC2(CC1CC[S+]([O-])c1ccccc1)OCCO2 (stereo not given)
[1]
  GI50: > 100 µM (inactive)
[2]
  GI50: > 100 µM (inactive)
[3]
  GI50: > 100 µM (inactive)
[4]
  GI50: > 100 µM (inactive)
[5]
  GI50: > 100 µM (inactive)
[6]
  GI50: > 100 µM (inactive)
[7]
  GI50: > 100 µM (inactive)
[8]
  GI50: > 100 µM (inactive)
[9]
  GI50: > 100 µM (inactive)
[10]
  GI50: > 100 µM (inactive)
[11]
  GI50: > 100 µM (inactive)
[12]
  GI50: > 100 µM (inactive)
[13]
  GI50: 89.7 µM (inactive)
[14]
  GI50: > 100 µM (inactive)
[15]
  GI50: > 100 µM (inactive)
[16]
  GI50: > 100 µM (inactive)
[17]
  GI50: > 100 µM (inactive)
[18]
  GI50: > 100 µM (inactive)
[19]
  GI50: > 100 µM (inactive)
[20]
  GI50: > 100 µM (inactive)

## COC(=O)c1c(C)cccc1C1CN=NC12Cc1cc(C)cc(C)c1C2=O (stereo not given)
[1]
  GI50: 84.7 µM (inactive)
[2]
  GI50: 20.4 µM (inactive)
[3]
  GI50: 48 µM (inactive)
[4]
  GI50: 31.4 µM (inactive)
[5]
  GI50: 9.46 µM (inactive)
[6]
  GI50: 41.3 µM (inactive)
[7]
  GI50: 24.9 µM (inactive)
[8]
  GI50: 38.5 µM (inactive)
[9]
  GI50: 26.2 µM (inactive)
[10]
  GI50: 25.2 µM (inactive)
[11]
  GI50: 46.1 µM (inactive)
[12]
  GI50: 42.7 µM (inactive)
[13]
  GI50: 20 µM (inactive)
[14]
  GI50: 28.4 µM (inactive)
[15]
  GI50: 6.85 µM (inactive)
[16]
  GI50: 44.7 µM (inactive)
[17]
  GI50: 34 µM (inactive)
[18]
  GI50: 35.1 µM (inactive)
[19]
  GI50: 73.1 µM (inactive)
[20]
  GI50: 20.7 µM (inactive)

## N/N=C1\C(OC(=O)Nc2cccc(Cl)c2)=Nc2ccccc21
[1]
  GI50: 8.39 µM (inactive)
[2]
  GI50: 6.47 µM (inactive)
[3]
  GI50: 14 µM (inactive)
[4]
  GI50: 4.58 µM (inactive)
[5]
  GI50: 3.13 µM (inactive)
[6]
  GI50: 17.1 µM (inactive)
[7]
  GI50: 4.47 µM (inactive)
[8]
  GI50: 7.43 µM (inactive)
[9]
  GI50: 12.1 µM (inactive)
[10]
  GI50: 6.4 µM (inactive)
[11]
  GI50: 7.01 µM (inactive)
[12]
  GI50: 6.64 µM (inactive)
[13]
  GI50: 13.6 µM (inactive)
[14]
  GI50: 5.32 µM (inactive)
[15]
  GI50: 8.51 µM (inactive)
[16]
  GI50: 6.9 µM (inactive)
[17]
  GI50: 13 µM (inactive)
[18]
  GI50: 2.35 µM (inactive)
[19]
  GI50: 16.1 µM (inactive)
[20]
  GI50: 5.07 µM (inactive)

## COC1/C=C\C=C(/C)C(=O)NC2=CC(=O)C(NCCCl)=C(CC(C)CC(OC)C(O)C(C)/C=C(/C)C1OC(N)=O)C2=O (stereo not given)
[1]
  GI50: 0.569 µM (active)
[2]
  GI50: 0.384 µM (active)
[3]
  GI50: 0.594 µM (active)
[4]
  GI50: 0.125 µM (active)
[5]
  GI50: 0.0219 µM (active)
[6]
  GI50: 0.127 µM (active)
[7]
  GI50: 0.33 µM (active)
[8]
  GI50: 0.117 µM (active)
[9]
  GI50: 0.0345 µM (active)
[10]
  GI50: 10.6 µM (inactive)
[11]
  GI50: 0.0724 µM (active)
[12]
  GI50: 0.323 µM (active)
[13]
  GI50: 0.0281 µM (active)
[14]
  GI50: 0.728 µM (active)
[15]
  GI50: 0.0333 µM (active)
[16]
  GI50: 0.11 µM (active)
[17]
  GI50: 0.0174 µM (active)
[18]
  GI50: 0.743 µM (active)
[19]
  GI50: 4.89 µM (inactive)
[20]
  GI50: 0.0715 µM (active)

## Nc1nc(SCC(=O)c2ccccc2)nc2nc3c(c(-c4ccccc4)c12)CCCC3
[1]
  GI50: > 100 µM (inactive)
[2]
  GI50: > 10 µM (inactive)
[3]
  GI50: 52 µM (inactive)
[4]
  GI50: 22.4 µM (inactive)
[5]
  GI50: 31.2 µM (inactive)
[6]
  GI50: > 100 µM (inactive)
[7]
  GI50: 15.3 µM (inactive)
[8]
  GI50: 4.71 µM (inactive)
[9]
  GI50: 52.4 µM (inactive)
[10]
  GI50: 25.6 µM (inactive)
[11]
  GI50: 19.2 µM (inactive)
[12]
  GI50: 20.6 µM (inactive)
[13]
  GI50: > 100 µM (inactive)
[14]
  GI50: 12.4 µM (inactive)
[15]
  GI50: 47.8 µM (inactive)
[16]
  GI50: 32 µM (inactive)
[17]
  GI50: 17.7 µM (inactive)
[18]
  GI50: > 10 µM (inactive)
[19]
  GI50: 19.1 µM (inactive)
[20]
  GI50: 76.2 µM (inactive)

## c1ccc(/C(=N\Nc2nc3ccccc3s2)c2ccccn2)cc1
[1]
  GI50: 3.75 µM (inactive)
[2]
  GI50: 7.31 µM (inactive)
[3]
  GI50: 3.91 µM (inactive)
[4]
  GI50: 3.56 µM (inactive)
[5]
  GI50: 2.71 µM (inactive)
[6]
  GI50: 7 µM (inactive)
[7]
  GI50: 2.72 µM (inactive)
[8]
  GI50: 8.28 µM (inactive)
[9]
  GI50: 0.649 µM (active)
[10]
  GI50: 2.7 µM (inactive)
[11]
  GI50: 3.14 µM (inactive)
[12]
  GI50: 2.36 µM (inactive)
[13]
  GI50: 0.792 µM (active)
[14]
  GI50: 0.0843 µM (active)
[15]
  GI50: 0.317 µM (active)
[16]
  GI50: 2.84 µM (inactive)
[17]
  GI50: 4.3 µM (inactive)
[18]
  GI50: 5.19 µM (inactive)
[19]
  GI50: 13.2 µM (inactive)
[20]
  GI50: 6.82 µM (inactive)

## COc1cccc(-c2nnc3c(-c4ccccc4)nc4ccccc4n23)c1
[1]
  GI50: 42.5 µM (inactive)
[2]
  GI50: 28 µM (inactive)
[3]
  GI50: > 100 µM (inactive)
[4]
  GI50: 4.94 µM (inactive)
[5]
  GI50: 3.37 µM (inactive)
[6]
  GI50: 65.8 µM (inactive)
[7]
  GI50: 33.6 µM (inactive)
[8]
  GI50: 73.8 µM (inactive)
[9]
  GI50: 10.9 µM (inactive)
[10]
  GI50: 14.4 µM (inactive)
[11]
  GI50: 29.5 µM (inactive)
[12]
  GI50: 49.1 µM (inactive)
[13]
  GI50: 7.18 µM (inactive)
[14]
  GI50: 10.5 µM (inactive)
[15]
  GI50: 14.4 µM (inactive)
[16]
  GI50: 21.8 µM (inactive)
[17]
  GI50: 8.38 µM (inactive)
[18]
  GI50: 35.6 µM (inactive)
[19]
  GI50: 57.9 µM (inactive)
[20]
  GI50: 30.1 µM (inactive)
